According to patent US20030086928A1, “Compositions associated with complex formation and methods of use thereof” (priority 2000, published 2003):

What was measured:
[1] = system: phospho (Ser133) CREB in D5 cells; test: Ser133 phosphorylation of CREB in D5 cells (Western blot / immunofluorescence with antiserum 5322); assay type: cell-based
Method: (§1) D5 cells were grown on glass coverslips and stimulated with forskolin and 3-isobutyl-1-methylxanthine (IBMX) or 12-O-tetradecanoyl phorbol acetate (TPA) for 10 minutes. The cells were methanol-fixed at […] for 5 min followed by three 5 min washes in PBS. Cells were blocked for 30 min with 3% BSA in PBS and donkey serum diluted 1:50. Primary antibodies were diluted in 3% BSA/PBS to 1:2000 for the phospho-CREB specific antibody 5322 or 1:100 (3 μg/ml) for the KID/KIX specific antibody. The cells were incubated with the primary antibodies for 1 hr at RT, followed by 3 washes with PBS and a 1 hr incubation with Biotin-SP-conjugated Donkey anti rabbit IgG diluted 1:200 in 3% BSA/PBS. After 3 washes in PBS, Texas Red conjugated Streptavidin was added at 1:200 dilution in 3% BSA/PBS. After one hour incubation, cells were washed 3 times in PBS and mounted in 90% glycerol/PBS containing 1 mg/ml phenylenediamine.
In addition to cAMP, other stimuli such as the phorbol ester TPA can promote Ser133 phosphorylation of CREB; yet these stimuli are unable to induce target gene activation via CBP, reflecting either a block in CREB:CBP complex formation or in the subsequent recruitment of the transcriptional apparatus. […]

[2] = system: somatostatin mRNA in D5 cells; test: Northern blot of somatostatin mRNA in D5 cells; assay type: cell-based, rat; details: 4 hours
Text: In addition to cAMP, other stimuli such as the phorbol ester TPA can promote Ser133 phosphorylation of CREB; yet these stimuli are unable to induce target gene activation via CBP, reflecting either a block in CREB:CBP complex formation or in the subsequent recruitment of the transcriptional apparatus. To evaluate formation of CREB:CBP complexes in vivo, NIH 3T3 cells expressing chromosomal copies of the rat somatostatin gene, hereafter referred to as D5 cells (Montminy et al. (1986) J Neurosci 6:803-813) were used. […] Western blot assays of total CREB and phospho (Ser133) CREB (P-CREB) levels were performed in control (C) or treated D5 cells exposed to either forskolin (F) or TPA (T) for 30 minutes. Northern blot assays were then performed to detect somatostatin (SOM) and tubulin (TUB) mRNA levels in control D5 cells (C) and in D5 cells treated with forskolin (F) or TPA (T) for 4 hours.

[3] = system: T1, CREB:CBP complexes in D5 cells; test: Immunofluorescence of CREB:CBP complexes in D5 cells with αKK antiserum; assay type: cell-based; details: 10 minutes
T1 construct: endogenous in cells; host or cells: D5 cells (NIH 3T3 with rat somatostatin gene)
Method: as §1
D5 cells were then treated with forskolin or TPA for 10 minutes.

T1 sequence (Q01147 whole entry): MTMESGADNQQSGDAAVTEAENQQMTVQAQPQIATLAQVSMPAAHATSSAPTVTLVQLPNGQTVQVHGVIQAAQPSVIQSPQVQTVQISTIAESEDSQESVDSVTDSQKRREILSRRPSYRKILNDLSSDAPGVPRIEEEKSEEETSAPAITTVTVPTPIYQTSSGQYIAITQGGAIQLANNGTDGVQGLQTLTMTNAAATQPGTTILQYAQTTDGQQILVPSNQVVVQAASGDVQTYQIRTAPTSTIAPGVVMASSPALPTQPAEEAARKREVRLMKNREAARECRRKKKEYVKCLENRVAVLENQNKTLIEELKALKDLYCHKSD
T1 sequence (P45481 2-2441 limits assumed, further chain): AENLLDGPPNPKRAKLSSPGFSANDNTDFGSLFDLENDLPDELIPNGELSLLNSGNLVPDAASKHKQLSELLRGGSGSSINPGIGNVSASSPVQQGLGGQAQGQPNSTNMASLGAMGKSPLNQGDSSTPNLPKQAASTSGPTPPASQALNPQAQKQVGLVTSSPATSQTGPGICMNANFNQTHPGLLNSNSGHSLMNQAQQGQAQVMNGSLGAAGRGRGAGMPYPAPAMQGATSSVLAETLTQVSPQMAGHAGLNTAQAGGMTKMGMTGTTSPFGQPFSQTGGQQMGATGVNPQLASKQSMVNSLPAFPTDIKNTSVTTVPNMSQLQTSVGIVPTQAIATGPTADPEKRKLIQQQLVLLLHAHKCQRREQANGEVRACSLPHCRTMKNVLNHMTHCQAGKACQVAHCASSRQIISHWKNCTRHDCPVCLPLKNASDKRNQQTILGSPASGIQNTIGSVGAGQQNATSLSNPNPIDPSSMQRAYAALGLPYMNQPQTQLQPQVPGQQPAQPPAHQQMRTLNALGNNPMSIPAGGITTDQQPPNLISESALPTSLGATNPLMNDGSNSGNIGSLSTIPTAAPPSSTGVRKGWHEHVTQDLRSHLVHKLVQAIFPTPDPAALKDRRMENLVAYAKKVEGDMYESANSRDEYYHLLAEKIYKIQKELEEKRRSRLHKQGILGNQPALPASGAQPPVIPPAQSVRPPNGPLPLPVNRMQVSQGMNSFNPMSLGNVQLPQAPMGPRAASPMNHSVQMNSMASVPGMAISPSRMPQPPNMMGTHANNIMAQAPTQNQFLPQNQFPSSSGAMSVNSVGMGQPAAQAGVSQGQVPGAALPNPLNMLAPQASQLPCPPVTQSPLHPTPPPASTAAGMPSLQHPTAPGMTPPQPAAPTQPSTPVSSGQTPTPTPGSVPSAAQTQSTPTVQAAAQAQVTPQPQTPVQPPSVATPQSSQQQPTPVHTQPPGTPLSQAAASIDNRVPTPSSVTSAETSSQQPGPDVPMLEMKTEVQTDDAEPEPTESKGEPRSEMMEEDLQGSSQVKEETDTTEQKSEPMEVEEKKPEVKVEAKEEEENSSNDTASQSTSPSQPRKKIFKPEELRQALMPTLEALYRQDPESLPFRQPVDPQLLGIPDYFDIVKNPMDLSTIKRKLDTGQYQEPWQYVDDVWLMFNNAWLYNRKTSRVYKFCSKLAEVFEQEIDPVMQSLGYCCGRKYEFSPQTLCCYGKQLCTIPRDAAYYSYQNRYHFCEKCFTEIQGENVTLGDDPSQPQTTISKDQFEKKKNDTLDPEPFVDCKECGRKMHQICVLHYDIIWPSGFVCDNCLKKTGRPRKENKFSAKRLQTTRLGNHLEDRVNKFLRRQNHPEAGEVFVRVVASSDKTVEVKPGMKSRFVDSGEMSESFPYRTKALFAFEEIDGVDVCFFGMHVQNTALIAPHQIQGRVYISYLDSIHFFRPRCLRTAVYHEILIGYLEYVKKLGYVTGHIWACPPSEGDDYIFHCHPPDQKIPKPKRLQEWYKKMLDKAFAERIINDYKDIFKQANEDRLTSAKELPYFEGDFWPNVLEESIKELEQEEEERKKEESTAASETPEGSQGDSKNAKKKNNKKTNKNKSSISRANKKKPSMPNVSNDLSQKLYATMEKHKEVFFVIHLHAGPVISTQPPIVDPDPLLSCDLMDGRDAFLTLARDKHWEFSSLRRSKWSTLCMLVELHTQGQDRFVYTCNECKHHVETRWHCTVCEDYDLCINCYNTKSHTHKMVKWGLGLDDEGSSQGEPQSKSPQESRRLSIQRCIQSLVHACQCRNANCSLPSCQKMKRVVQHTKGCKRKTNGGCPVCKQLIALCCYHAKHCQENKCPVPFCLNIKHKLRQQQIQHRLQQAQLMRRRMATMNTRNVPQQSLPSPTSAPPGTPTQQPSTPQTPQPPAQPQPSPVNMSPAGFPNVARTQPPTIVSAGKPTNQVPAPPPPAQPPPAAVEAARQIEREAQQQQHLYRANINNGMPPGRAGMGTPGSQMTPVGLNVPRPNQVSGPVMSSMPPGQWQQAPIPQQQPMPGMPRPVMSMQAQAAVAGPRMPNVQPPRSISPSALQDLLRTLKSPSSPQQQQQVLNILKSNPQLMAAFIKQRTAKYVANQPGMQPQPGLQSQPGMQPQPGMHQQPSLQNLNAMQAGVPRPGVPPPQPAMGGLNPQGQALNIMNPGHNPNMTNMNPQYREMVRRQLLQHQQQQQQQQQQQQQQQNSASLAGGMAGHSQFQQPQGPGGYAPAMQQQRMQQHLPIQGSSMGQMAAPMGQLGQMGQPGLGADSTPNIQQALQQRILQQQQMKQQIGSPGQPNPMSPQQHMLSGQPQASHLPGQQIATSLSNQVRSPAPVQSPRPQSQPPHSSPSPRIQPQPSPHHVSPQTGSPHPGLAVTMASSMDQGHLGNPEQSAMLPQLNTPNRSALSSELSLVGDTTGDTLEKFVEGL

Row | SMILES | accumulation of phospho (Ser133) CREB ([1]; 10 minutes, immunofluorescence) | Ser133 phosphorylation of CREB ([1]; 30 minutes, Western blot with antiserum 5322) | somatostatin mRNA accumulation [2] | CREB:CBP complex formation detected with αKK antiserum [3]
1 | CCCCCCCCCCCCCC(=O)O[C@@H]1[C@@H](C)[C@@]2(O)[C@@H](C=C(CO)C[C@]3(O)C(=O)C(C)=C[C@@H]23)[C@@H]2C(C)(C)[C@]12OC(C)=O [TPA, 12-O-tetradecanoyl phorbol acetate] | comparable levels of Ser133 phosphorylation | induced Ser133 phosphorylation of CREB with comparable stoichiometry to forskolin induction | no discernible effect | no CREB:CBP complexes were detected
2 | C=C[C@@]1(C)CC(=O)[C@]2(O)[C@@]3(C)[C@@H](O)CCC(C)(C)[C@@H]3[C@H](O)[C@H](OC(C)=O)[C@@]2(C)O1 [forskolin] | – | – | 5 fold | –
